Data published in patent US20210308089A1, “METHODS OF TREATING AND/OR PREVENTING VIRAL INFECTIONS AND/OR DISEASES CAUSED BY VIRUSES IN A SUBJECT IN NEED THEREOF” (priority 2020, published 2021).
Like-named read-outs stand apart in the source and are kept apart here.

Tested on: patients of the REDUCE-IT and earlier EPA placebo-controlled trials
Format: in vivo, human
Conditions: R-I
[1] = Bilirubin shift: normal to high (Day 120)
[2] = Bilirubin shift: normal to high (Day 360)
[3] = Bilirubin shift: normal to high (Day 720)
[4] = Bilirubin shift: normal to high (Day 1080)
[5] = Bilirubin shift: normal to high (Day 1440)
[6] = Bilirubin shift: normal to high (Day 1800)

CC/C=C\C/C=C\C/C=C\C/C=C\C/C=C\CCCC(=O)OCC [icosapent ethyl, eicosapentaenoic acid ethyl ester]
Risk Ratio (95% CI): Urate shift: normal to low (Day 1440): 0.210 (0.046 to 0.973) 4 | Risk Ratio (95% CI): Uric acid PCS High >7.5 mg/dL (Women): 1.180 (0.974 to 1.429) −1 | Risk Ratio (95% CI): Uric acid PCS High >8.0 mg/dL (Men): 1.313 (1.183 to 1.458) −2 | Risk Ratio (95% CI): Uric acid PCS Low <1.9 mg/dL (Women): 1.000 (0.063 to 15.986) −1 | Risk Ratio (95% CI): Uric acid PCS Low <2.5 mg/dL (Men): 0.650 (0.324 to 1.305) 2 | ARR (Bilirubin >1x ULN to 2x ULN): 3.5% | NNT (Bilirubin >1x ULN to 2x ULN): −29 | Risk Ratio (95% CI) (Bilirubin >1x ULN to 2x ULN): 3.157 (2.392 to 4.168) −4 | ARR (Bilirubin >2x ULN to 3x ULN): 0.2% | NNT (Bilirubin >2x ULN to 3x ULN): −497 | Risk Ratio (95% CI) (Bilirubin >2x ULN to 3x ULN): 3.668 (1.024 to 13.136) −4 | ARR (Bilirubin high (Day 120)): 2.4% | NNT (Bilirubin high (Day 120)): −42 | Risk Ratio (95% CI) (Bilirubin high (Day 120)): 4.288 (2.849 to 6.454) −4 | ARR (Bilirubin high (Day 360)): 2.0% | NNT (Bilirubin high (Day 360)): −50 | Risk Ratio (95% CI) (Bilirubin high (Day 360)): 3.263 (2.203 to 4.832) −4 | ARR (Bilirubin high (Day 720)): 2.6% | NNT (Bilirubin high (Day 720)): −38 | Risk Ratio (95% CI) (Bilirubin high (Day 720)): 5.052 (3.174 to 8.039) −5 | ARR (Bilirubin high (Day 1080)): 2.0% | NNT (Bilirubin high (Day 1080)): −50 | Risk Ratio (95% CI) (Bilirubin high (Day 1080)): 2.430 (1.683 to 3.508) −3 | ARR (Bilirubin high (Day 1440)): 2.5% | NNT (Bilirubin high (Day 1440)): −40 | Risk Ratio (95% CI) (Bilirubin high (Day 1440)): 3.543 (2.243 to 5.596) −4 | ARR (Bilirubin high (Day 1800)): 2.3% | NNT (Bilirubin high (Day 1800)): −43 | Risk Ratio (95% CI) (Bilirubin high (Day 1800)): 2.670 (1.569 to 4.545) −4 | ARR [1]: 1.3% | NNT [1]: −77 | Risk Ratio (95% CI) [1]: 5.106 (2.754 to 9.467) −5 | ARR [2]: 1.3% | NNT [2]: −80 | Risk Ratio (95% CI) [2]: 5.431 (2.773 to 10.636) −5 | ARR [3]: 1.3% | NNT [3]: −76 | Risk Ratio (95% CI) [3]: 4.803 (2.516 to 9.168) −4 | ARR [4]: 1.0% | NNT [4]: −95 | Risk Ratio (95% CI) [4]: 2.235 (1.374 to 3.636) −3 | ARR [5]: 1.8% | NNT [5]: −57 | Risk Ratio (95% CI) [5]: 5.445 (2.687 to 11.034) −5 | ARR [6]: 1.2% | NNT [6]: −81 | Risk Ratio (95% CI) [6]: 2.556 (1.242 to 5.259) −4 | Placebo-Adjusted % Change (Erythrocytes (Day 120)): +.72% | Placebo-Adjusted % Change (Erythrocytes (Day 360)): +.26% | Placebo-Adjusted % Change (Erythrocytes (Day 720)): +.29% | Placebo-Adjusted % Change (Erythrocytes (Day 1080)): +.43% | Placebo-Adjusted % Change (Erythrocytes (Day 1440)): +.66% | ARR (Erythrocytes low (Day 120)): −1.3% | NNT (Erythrocytes low (Day 120)): 77 | Risk Ratio (95% CI) (Erythrocytes low (Day 120)): 0.814 (0.685 to 0.968) 1 | ARR (Erythrocytes low (Day 360)): −0.4% | NNT (Erythrocytes low (Day 360)): 223 | Risk Ratio (95% CI) (Erythrocytes low (Day 360)): 0.932 (0.781 to 1.113) 1 | ARR (Erythrocytes low (Day 720)): −0.4% | NNT (Erythrocytes low (Day 720)): 251 | Risk Ratio (95% CI) (Erythrocytes low (Day 720)): 0.940 (0.779 to 1.133) 1 | ARR (Erythrocytes low (Day 1080)): −1.7% | NNT (Erythrocytes low (Day 1080)): 60 | Risk Ratio (95% CI) (Erythrocytes low (Day 1080)): 0.781 (0.642 to 0.950) 2 | ARR (Erythrocytes low (Day 1440)): −0.8% | NNT (Erythrocytes low (Day 1440)): 120 | Risk Ratio (95% CI) (Erythrocytes low (Day 1440)): 0.888 (0.720 to 1.093) 1 | ARR (Erythrocytes low (Day 1800)): −0.2% | NNT (Erythrocytes low (Day 1800)): 485 | Risk Ratio (95% CI) (Erythrocytes low (Day 1800)): 0.975 (0.756 to 1.258) 1 | Placebo-Adjusted % Change (Hematocrit (Day 120)): +.42%
